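48-hour exposure; five concentrations; linearly interpolated endpoints. GI50 marks 50% less growth.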 Calls of active or inactive are those of the source. No stated cut-off is given here; in the data, active = GI50 up to about 1.1 µM and inactive = higher.
What was measured:
Experiment in all cases: DTP human tumour cell line panel, 48 h
[1] = test system: Hs-578T
[2] = test system: SK-MEL-28
[3] = test system: SN12C
[4] = test system: MOLT-4
[5] = test system: NCI/ADR-RES
[6] = test system: M14
[7] = test system: SW-620
[8] = test system: DU-145
[9] = test system: HCT-15
[10] = test system: HOP-62
[11] = test system: SK-MEL-2
[12] = test system: SK-OV-3
[13] = test system: K562
[14] = test system: MDA-MB-231
[15] = test system: 786-0
[16] = test system: SF-295
[17] = test system: EKVX
[18] = test system: HL-60
[19] = test system: HT-29
[20] = test system: SK-MEL-5

| SMILES | GI50 [1] | GI50 [2] | GI50 [3] | GI50 [4] | GI50 [5] | GI50 [6] | GI50 [7] | GI50 [8] | GI50 [9] | GI50 [10] | GI50 [11] | GI50 [12] | GI50 [13] | GI50 [14] | GI50 [15] | GI50 [16] | GI50 [17] | GI50 [18] | GI50 [19] | GI50 [20] |
| --- | --- | --- | --- | --- | --- | --- | --- | --- | --- | --- | --- | --- | --- | --- | --- | --- | --- | --- | --- | --- |
| COc1c(O)cc2ccnc3c2c1N(C)C=C3 | > 100 µM (inactive) | > 100 µM (inactive) | 67.6 µM (inactive) | 91.6 µM (inactive) | > 100 µM (inactive) | > 100 µM (inactive) | 86.1 µM (inactive) | > 100 µM (inactive) | > 100 µM | > 100 µM (inactive) | > 100 µM (inactive) | > 100 µM (inactive) | > 100 µM (inactive) | > 100 µM (inactive) | 83.8 µM (inactive) | 55 µM (inactive) | > 100 µM (inactive) | – | – | – |
| COc1cc(/C=N\O)nc(-c2ccccn2)c1 | 47.2 µM (inactive) | 0.729 µM (active) | 0.264 µM (active) | 0.173 µM (active) | 0.36 µM (active) | 0.259 µM (active) | 0.664 µM (active) | 0.236 µM (active) | 0.092 µM | 0.137 µM (active) | – | 0.45 µM (active) | 0.399 µM (active) | 1.05 µM (active) | 0.179 µM (active) | 0.339 µM (active) | 0.195 µM (active) | 0.124 µM (active) | 0.569 µM (active) | 0.298 µM (active) |
| CCOC(=O)C1C[C@H]2CO[C@H](c3ccccc3)N2C1=O (some centres not stated) | > 100 µM (inactive) | > 100 µM (inactive) | > 100 µM (inactive) | > 100 µM (inactive) | > 100 µM (inactive) | > 100 µM (inactive) | > 100 µM (inactive) | > 100 µM (inactive) | > 100 µM | – | > 100 µM (inactive) | – | > 100 µM (inactive) | > 100 µM (inactive) | > 100 µM (inactive) | > 100 µM (inactive) | > 100 µM (inactive) | – | > 100 µM (inactive) | > 100 µM (inactive) |
| C=CCOc1ccc(C2c3c(n[nH]c3O)CC(O)(OCC)C2C(=O)OCC)cc1OC (configuration not stated) | > 100 µM (inactive) | > 100 µM (inactive) | > 100 µM (inactive) | > 100 µM (inactive) | > 100 µM (inactive) | > 100 µM (inactive) | > 100 µM (inactive) | > 100 µM (inactive) | > 100 µM | > 100 µM (inactive) | > 100 µM (inactive) | – | – | > 100 µM (inactive) | > 100 µM (inactive) | > 100 µM (inactive) | > 100 µM (inactive) | > 100 µM (inactive) | > 100 µM (inactive) | > 100 µM (inactive) |
| CC(CO)CCNc1ncnc2c1ncn2CCC(=O)O (configuration not stated) | > 100 µM (inactive) | > 100 µM (inactive) | > 100 µM (inactive) | > 100 µM (inactive) | > 100 µM (inactive) | > 100 µM (inactive) | > 100 µM (inactive) | > 100 µM (inactive) | – | > 100 µM (inactive) | – | > 100 µM (inactive) | > 100 µM (inactive) | > 100 µM (inactive) | > 100 µM (inactive) | > 100 µM (inactive) | > 100 µM (inactive) | > 100 µM (inactive) | > 100 µM (inactive) | > 100 µM (inactive) |
| O=C1/C(=C/c2ccc([N+](=O)[O-])cc2)CCCc2ccccc21 | 25.8 µM (inactive) | > 100 µM (inactive) | > 100 µM (inactive) | > 100 µM (inactive) | > 100 µM (inactive) | > 100 µM (inactive) | > 100 µM (inactive) | > 100 µM (inactive) | 69.2 µM | 54.3 µM (inactive) | > 100 µM (inactive) | > 100 µM (inactive) | > 100 µM (inactive) | > 100 µM (inactive) | > 100 µM (inactive) | 63.5 µM (inactive) | 48.6 µM (inactive) | > 100 µM (inactive) | > 100 µM (inactive) | – |
| O=C(O)CN(CC(=O)O)Cc1ccn(-c2cccc(-n3ccc(CN(CC(=O)O)CC(=O)O)n3)n2)n1 | > 100 µM (inactive) | > 100 µM (inactive) | > 100 µM (inactive) | > 100 µM (inactive) | > 100 µM (inactive) | > 100 µM (inactive) | > 100 µM (inactive) | > 100 µM (inactive) | > 100 µM | > 100 µM (inactive) | > 100 µM (inactive) | > 100 µM (inactive) | – | > 100 µM (inactive) | > 100 µM (inactive) | > 100 µM (inactive) | > 100 µM (inactive) | < 0.01 µM (active) | > 100 µM (inactive) | > 100 µM (inactive) |
| O=C1CC(c2ccccc2Cl)Oc2ccccc21 (configuration not stated) | 26.3 µM (inactive) | > 100 µM (inactive) | – | – | 13.1 µM (inactive) | 25.9 µM (inactive) | 25.5 µM (inactive) | 45 µM (inactive) | 24.7 µM | 25.9 µM (inactive) | 19.9 µM (inactive) | > 100 µM (inactive) | 17.3 µM (inactive) | 26.9 µM (inactive) | 29 µM (inactive) | 40.6 µM (inactive) | 14 µM (inactive) | 32.4 µM (inactive) | 10.8 µM (inactive) | 32.8 µM (inactive) |
| CC(=O)N1CC(C)(C)c2c(C)c(O)c(C)c(C)c21 | > 100 µM (inactive) | > 100 µM (inactive) | > 100 µM (inactive) | > 100 µM (inactive) | > 100 µM (inactive) | > 100 µM (inactive) | > 100 µM (inactive) | > 100 µM (inactive) | > 100 µM | > 100 µM (inactive) | – | > 100 µM (inactive) | > 100 µM (inactive) | > 100 µM (inactive) | > 100 µM (inactive) | > 100 µM (inactive) | > 100 µM (inactive) | > 100 µM (inactive) | > 100 µM (inactive) | > 100 µM (inactive) |
| O=C1c2[nH]c3ccccc3c2CCN2CCCCC12 (configuration not stated) | 28 µM (inactive) | 37.4 µM (inactive) | 35.6 µM (inactive) | 17.3 µM (inactive) | 22.8 µM (inactive) | 17.9 µM (inactive) | 26.1 µM (inactive) | 36.4 µM (inactive) | 31.9 µM | 29.3 µM (inactive) | 18.5 µM (inactive) | 31.1 µM (inactive) | 23.2 µM (inactive) | 19.2 µM (inactive) | 24 µM (inactive) | 25.1 µM (inactive) | 23.4 µM (inactive) | 1.8 µM (inactive) | 34.1 µM (inactive) | – |
| O=C1CC(C(=O)N2CCCCC2)n2c(=O)n(-c3ccccc3)c(=O)n2C1 (configuration not stated) | > 100 µM (inactive) | – | – | – | > 100 µM (inactive) | > 100 µM (inactive) | – | > 100 µM (inactive) | > 100 µM | > 100 µM (inactive) | – | > 100 µM (inactive) | – | > 100 µM (inactive) | > 100 µM (inactive) | > 100 µM (inactive) | > 100 µM (inactive) | – | > 100 µM (inactive) | > 100 µM (inactive) |
| Nc1ccc2nc3ccc(N)cc3[n+](-c3ccccc3)c2c1 | 40.6 µM (inactive) | > 100 µM (inactive) | 25.4 µM (inactive) | – | 14.9 µM (inactive) | 30.2 µM (inactive) | 37.3 µM (inactive) | 68.2 µM (inactive) | > 100 µM | 43.3 µM (inactive) | 34.5 µM (inactive) | > 100 µM (inactive) | 69.3 µM (inactive) | 63.8 µM (inactive) | 95.7 µM (inactive) | 33.3 µM (inactive) | > 100 µM (inactive) | > 100 µM (inactive) | 21.2 µM (inactive) | 25.6 µM (inactive) |
| O=C(Nn1c(-c2ccccc2)nc2ccccc2c1=O)c1ccc(O)cc1 | > 100 µM (inactive) | > 100 µM (inactive) | > 100 µM (inactive) | > 100 µM (inactive) | > 100 µM (inactive) | > 100 µM (inactive) | > 100 µM (inactive) | > 100 µM (inactive) | > 100 µM | > 100 µM (inactive) | – | > 100 µM (inactive) | > 100 µM (inactive) | > 100 µM (inactive) | > 100 µM (inactive) | > 100 µM (inactive) | 61 µM (inactive) | > 100 µM (inactive) | > 100 µM (inactive) | > 100 µM (inactive) |
| CC(=O)Oc1cc(Cl)c(C)c2c1[C@H]1CC[C@]3(C)[C@@H](OC(C)=O)CC[C@H]3[C@@H]1CC2 | > 100 µM (inactive) | > 100 µM (inactive) | > 100 µM (inactive) | 78.2 µM (inactive) | > 100 µM (inactive) | > 100 µM (inactive) | > 100 µM (inactive) | > 100 µM (inactive) | 50.4 µM | > 100 µM (inactive) | – | – | 78.5 µM (inactive) | > 100 µM (inactive) | > 100 µM (inactive) | > 100 µM (inactive) | > 100 µM (inactive) | 53.6 µM (inactive) | 61.4 µM (inactive) | > 100 µM (inactive) |
| CC(C)(C)c1ccc(CN2CCN(C(c3ccccc3)c3ccc(Cl)cc3)CC2)cc1 (configuration not stated) | > 100 µM (inactive) | 65.5 µM (inactive) | > 100 µM (inactive) | 44.6 µM (inactive) | > 100 µM (inactive) | 33.4 µM (inactive) | > 100 µM (inactive) | > 100 µM (inactive) | 29.9 µM | > 100 µM (inactive) | 31 µM (inactive) | > 100 µM (inactive) | 36.6 µM (inactive) | > 100 µM (inactive) | 42.4 µM (inactive) | 37.9 µM (inactive) | 32.1 µM (inactive) | – | 20.3 µM (inactive) | 27 µM (inactive) |
| O=C(/C=C/c1ccccc1)CCC1C(=O)NC(=S)NC1=O | > 100 µM (inactive) | > 100 µM (inactive) | > 100 µM (inactive) | > 100 µM (inactive) | > 100 µM (inactive) | > 100 µM (inactive) | > 100 µM (inactive) | > 100 µM (inactive) | > 100 µM | – | > 100 µM (inactive) | > 100 µM (inactive) | > 100 µM (inactive) | > 100 µM (inactive) | > 100 µM (inactive) | > 100 µM (inactive) | – | – | – | > 100 µM (inactive) |

— ChEMBL document CHEMBL1201862, “PubChem BioAssay data set” (2004)
